The subject of experiment [1] is P. aeruginosa PAO1. Put plainly: Susceptibility Testing (MIC, broth microdilution). The settings on record: Pseudomonas aeruginosa, PAO1, 20 h, P. aeruginosa PAO1, broth microdilution, 20 hours; read-out: PAO1 MIC. Type of experiment: cell-based, Pseudomonas aeruginosa. Summed up:
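Broth microdilution per CLSI in cation-adjusted Mueller-Hinton broth, inoculum ~5×10^5 CFU/mL, two-fold compound dilutions (1% DMSO final). Plates incubated 20 h in ambient air at 35° C. MIC is the lowest concentration preventing visible growth, confirmed by OD 600 nm reading.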

Experiment [2] has as its target P. aeruginosa LpxC (Pseudomonas aeruginosa (strain ATCC 15692 / DSM 22644 / CIP 104116 / JCM 14847 / LMG 12228 / 1C / PRS 101 / PAO1), UniProt P47205). Put plainly: P. aeruginosa LpxC Inhibition Assay. The experiment is classed as biochemical. The settings on record: 2 μM substrate, LC-MS/MS. Summed up:
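Compounds pre-incubated 30 min at room temperature with 1 nM LpxC, then 2 μM UDP-3-O-(R-3-hydroxydecanoyl)-GlcNAc added; 20 min reaction in 50 mM sodium phosphate pH 7.5, 0.005% Triton X-100, quenched with HOAc. Product quantified by LC-MS/MS against calibration curve; IC50 from four-parameter logistic fit.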

[3] abbreviates: 1 nM P. aeruginosa LpxC, read-out: PA LpxC IC50.

Among the data in patent publication US9718792B2, “Isoxazoline hydroxamic acid derivatives as LpxC inhibitors” (priority 2014, dated 2017) are MIC and IC50 values, retold here.

In brackets after ≈: the same amount, converted by molar mass. Like-named read-outs stand apart in the source and are kept apart here. Some results are limits rather than exact numbers.

One may read the MIC as the smallest concentration in the dilution series that meets the test's criterion for growth inhibition. One may read the IC50 as the concentration needed to halve the response being measured. Consider `C[C@@H](O)[C@@H](O)Cc1ccc(-c2ccc(C3=NO[C@@H](C[C@](C)(C(=O)NO)S(C)(=O)=O)C3)cc2)cc1` [Compound 93, (R)-3-((R)-3-(4′-((2S,3R)-2,3-dihydroxybutyl)-[1,1′-biphenyl]-4-yl)-4,5-dihydroisoxazol-5-yl)-N-hydroxy-2-methyl-2-(methylsulfonyl) propanamide], for which the MIC in experiment [1] is 2 µg/mL (≈ 4.08 µM). For the same compound, the IC50 in experiment [2] (setting [3]) was less than 0.5 nM.
As for `C[C@@](C[C@H]1CC(c2ccc(-c3ccc([C@H](O)CO)cc3)cc2)=NO1)(C(=O)NO)S(C)(=O)=O` [Compound 94, (R)-3-((R)-3-(4′-((S)-1,2-dihydroxyethyl)-[1,1′-biphenyl]-4-yl)-4,5-dihydroisoxazol-5-yl)-N-hydroxy-2-methyl-2-(methylsulfonyl)propanamide], the MIC in experiment [1] amounted to 0.25 µg/mL (≈ 0.541 µM). In addition, the IC50 in experiment [2] (setting [3]) is less than 0.5 nM.
Take `C[C@@](C[C@H]1CC(c2ccc(-c3ccc([C@@H](O)CO)cc3)cc2)=NO1)(C(=O)NO)S(C)(=O)=O` [Compound 95, (R)-3-((R)-3-(4′-((R)-1,2-dihydroxyethyl)-[1,1′-biphenyl]-4-yl)-4,5-dihydroisoxazol-5-yl)-N-hydroxy-2-methyl-2-(methylsulfonyl)propanamide]: the MIC in experiment [1] amounted to 0.25 µg/mL (≈ 0.541 µM). Moreover, the IC50 in experiment [2] (setting [3]) is less than 0.1 nM.
Take `C[C@@](C[C@H]1CC(c2ccc(-c3ccc(C(O)CCO)cc3)cc2)=NO1)(C(=O)NO)S(C)(=O)=O` (stereo partly drawn) [Compound 96, (2R)-3-((5R)-3-(4′-(1,3-dihydroxypropyl)-[1,1′-biphenyl]-4-yl)-4,5-dihydroisoxazol-5-yl)-N-hydroxy-2-methyl-2-(methylsulfonyl)propanamide]: the MIC in experiment [1] is 0.5 µg/mL (≈ 1.05 µM). For the same compound, the concentration for half-maximal inhibition (IC50) in experiment [2] (setting [3]) is less than 0.5 nM.
In the case of `C[C@@](C[C@H]1CC(c2ccc(C#CC3CCOCC3)cc2)=NO1)(C(=O)NO)S(C)(=O)=O` [Compound 98, (R)—N-hydroxy-2-methyl-2-(methylsulfonyl)-3-((R)-3-(4-((tetrahydro-2H-pyran-4-yl)ethynyl)phenyl)-4,5-dihydroisoxazol-5-yl)propanamide], the MIC in experiment [1] came to 2 µg/mL (≈ 4.6 µM). Moreover, the IC50 in experiment [2] (setting [3]) came out at 0.6 nM.
Consider `C[C@@](C[C@H]1CC(c2ccc(-c3c(F)cncc3F)cc2)=NO1)(C(=O)NO)S(C)(=O)=O` [Compound 100], for which, in experiment [1], the MIC came to 0.25 µg/mL (≈ 0.569 µM). Moreover, the IC50 in experiment [2] (setting [3]) is less than 0.5 nM.
In the same order, the values of `CCc1ccc(C2=NO[C@@H](C[C@](C)(C(=O)NO)S(C)(=O)=O)C2)cc1F` [Compound 101, (R)-3-((R)-3-(4-ethyl-3-fluorophenyl)-4,5-dihydroisoxazol-5-yl)-N-hydroxy-2-methyl-2-(methylsulfonyl)propanamide] are 0.35 µg/mL (≈ 0.94 µM) and less than 0.5 nM.
On to `C[C@@](C[C@H]1CC(c2ccc(-c3ccc(CCO)cc3)c(F)c2)=NO1)(C(=O)NO)S(C)(=O)=O` [Compound 102, (R)-3-((R)-3-(2-fluoro-4′-(2-hydroxyethyl)-[1,1′-biphenyl]-4-yl)-4,5-dihydroisoxazol-5-yl)-N-hydroxy-2-methyl-2-(methylsulfonyl)], for which the MIC in experiment [1] worked out at 0.18 µg/mL (≈ 0.388 µM). The IC50 in experiment [2] (setting [3]) was less than 0.5 nM.
For `C[C@@](C[C@H]1CC(c2ccc(-c3ccc(CO)cc3)c(F)c2)=NO1)(C(=O)NO)S(C)(=O)=O` [Compound 103, (R)-3-((R)-3-(2-fluoro-4′-(hydroxymethyl)-[1,1′-biphenyl]-4-yl)-4,5-dihydroisoxazol-5-yl)-N-hydroxy-2-methyl-2-(methylsulfonyl)propanamide] the same measures were 0.18 µg/mL (≈ 0.4 µM) and 0.6 nM.
In the same order, the values of `C[C@@](C[C@H]1CC(c2ccc(-c3ccc(CC#N)cc3)c(F)c2)=NO1)(C(=O)NO)S(C)(=O)=O` [Compound 104, (R)-3-((R)-3-(4′-(cyanomethyl)-2-fluoro-[1,1′-biphenyl]-4-yl)-4,5-dihydroisoxazol-5-yl)-N-hydroxy-2-methyl-2-(methylsulfonyl)propanamide] are 0.125 µg/mL (≈ 0.272 µM) and 0.5 nM.
For the compound `Cn1ccc(-c2ccc(C3=NO[C@@H](C[C@](C)(C(=O)NO)S(C)(=O)=O)C3)cc2F)cc1=O` [Compound 108, (R)-3-((R)-3-(3-fluoro-4-(1-methyl-2-oxo-1,2-dihydropyridin-4-yl)phenyl)-4,5-dihydroisoxazol-5-yl)-N-hydroxy-2-methyl-2-(methylsulfonyl)propanamide], the MIC in experiment [1] amounted to 8 µg/mL (≈ 17.7 µM). The compound also gave an IC50 in experiment [2] (PA LpxC IC50, 1 nM P. aeruginosa LpxC) of 2 nM.
`CC(C)(O)c1ccc(-c2ccc(C3=NO[C@@H](C[C@](C)(C(=O)NO)S(C)(=O)=O)C3)cc2F)cc1` [Compound 110, (R)-3-((R)-3-(2-fluoro-4′-(2-hydroxypropan-2-yl)-[1,1′-biphenyl]-4-yl)-4,5-dihydroisoxazol-5-yl)-N-hydroxy-2-methyl-2-(methylsulfonyl)propanamide]: in experiment [1], the MIC came out at 0.5 µg/mL (≈ 1.04 µM). Moreover, in experiment [2] (setting [3]), the IC50 was less than 0.5 nM.
In the same order, the values of `C[C@@](C[C@H]1CC(c2ccc(-c3ccncc3C(F)(F)F)cc2)=NO1)(C(=O)NO)S(C)(=O)=O` [Compound 111, (R)—N-hydroxy-2-methyl-2-(methylsulfonyl)-3-((R)-3-(4-(3-(trifluoromethyl)pyridin-4-yl)phenyl)-4,5-dihydroisoxazol-5-yl)propanamide] are 1 µg/mL (≈ 2.12 µM) and less than 0.5 nM.
In the case of `CC(C)c1cc(-c2ccc(C3=NO[C@@H](C[C@](C)(C(=O)NO)S(C)(=O)=O)C3)cc2F)ccn1` [Compound 112, (R)-3-((R)-3-(3-fluoro-4-(2-isopropylpyridin-4-yl)phenyl)-4,5-dihydroisoxazol-5-yl)-N-hydroxy-2-methyl-2-(methylsulfonyl)propanamide], the MIC in experiment [1] is 1 µg/mL (≈ 2.16 µM). Also, the half-inhibitory concentration (IC50) in experiment [2] (setting [3]) is less than 0.5 nM.
With `COc1ccc(-c2ccc(C3=NO[C@@H](C[C@](C)(C(=O)NO)S(C)(=O)=O)C3)cc2F)c(C)c1` [Compound 113, (R)-3-((R)-3-(2-fluoro-4′-methoxy-2′-methyl-[1,1′-biphenyl]-4-yl)-4,5-dihydroisoxazol-5-yl)-N-hydroxy-2-methyl-2-(methylsulfonyl)propanamide], the MIC in experiment [1] is 0.71 µg/mL (≈ 1.53 µM). For the same compound, the IC50 in experiment [2] (setting [3]) was less than 0.5 nM.
As for `C[C@@](C[C@H]1CC(c2ccc(-c3ccc(-c4nn[nH]n4)cc3)c(F)c2)=NO1)(C(=O)NO)S(C)(=O)=O` [Compound 114, (R)-3-((R)-3-(2-fluoro-4′-(2H-tetrazol-5-yl)-[1,1′-biphenyl]-4-yl)-4,5-dihydroisoxazol-5-yl)-N-hydroxy-2-methyl-2-(methylsulfonyl)propanamide], the MIC in experiment [1] came out at 32 µg/mL (≈ 65.5 µM). Also, the IC50 in experiment [2] (setting [3]) is less than 0.5 nM.
With `C[C@@H](O)Cc1ccc(-c2ccc(C3=NO[C@@H](C[C@](C)(C(=O)NO)S(C)(=O)=O)C3)cc2F)c(F)c1` [Compound 115, (R)-3-((R)-3-(2,2′-difluoro-4′-((R)-2-hydroxypropyl)-[1,1′-biphenyl]-4-yl)-4,5-dihydroisoxazol-5-yl)-N-hydroxy-2-methyl-2-(methylsulfonyl)propanamide], the MIC in experiment [1] worked out at 1 µg/mL (≈ 2.01 µM). The IC50 in experiment [2] (setting [3]) was less than 0.5 nM.
Turning to `C[C@@H](O)Cc1cc(F)c(-c2ccc(C3=NO[C@@H](C[C@](C)(C(=O)NO)S(C)(=O)=O)C3)cc2F)c(F)c1` [Compound 116, (R)—N-hydroxy-2-methyl-2-(methylsulfonyl)-3-((R)-3-(2,2′,6′-trifluoro-4′-((R)-2-hydroxypropyl)-[1,1′-biphenyl]-4-yl)-4,5-dihydroisoxazol-5-yl) propanamide], the MIC in experiment [1] was determined as 0.5 µg/mL (≈ 0.972 µM). In addition, the 50% inhibitory concentration (IC50) in experiment [2] (setting [3]) is less than 0.5 nM.
